{"source": "patent US20090311321A1", "about": "“ORAL DISINTEGRATING TABLET HAVING MASKED BITTER TASTE AND METHOD FOR PRODUCTION THEREOF” (KISSEI PHARMACEUTICAL CO., LTD., priority 2006, published 2009)", "assay": "Solubility of mitiglinide calcium hydrate (water, pH dependence)", "assay_type": "physicochemical", "source_text": "The inventors of the present invention conducted studies on orally disintegrating tablets containing mitiglinide calcium hydrate. […] Because the orally disintegrating tablets are designed to quickly disintegrate in the mouth, the influence of bitterness becomes a big factor when the active ingredient has a bitter taste. […] Under these circumstances, the inventors of the present invention conducted studies to provide a mitiglinide calcium hydrate-containing orally disintegrating tablet having reduced bitterness and capable of rapidly dissolving in the digestive tract.\nAs mentioned above, the mitiglinide calcium hydrate-containing preparation is administered immediately before meal, and preferably, rapidly dissolves upon administration to improve postprandial hyperglycemia. It is therefore desirable in an orally disintegrating tablet of the present invention that the tablet rapidly dissolves in the digestive tract, particularly in the stomach, after having disintegrated in the mouth. […] It is therefore preferable that an orally disintegrating tablet of the present invention rapidly dissolve in the stomach and water.", "data": [{"compound": "O=C(O)[C@H](CC(=O)N1C[C@H]2CCCC[C@H]2C1)Cc1ccccc1", "note": "[mitiglinide calcium hydrate, (+)-Monocalcium bis[(2S,3a,7a-cis)-α-benzylhexahydro-γ-oxo-2-isoindolinebutyrate]dihydrate]", "values": [{"measurement": "pH-dependent solubility", "setting": "alkaline versus neutral to acidic pH", "value": "soluble in an alkaline pH range, and insoluble toward the neutral to acidic pH"}, {"measurement": "Solubility in water", "setting": "water", "value": "does not easily dissolve in water"}]}]}
